From PubChem BioAssay AID256 (DTP/NCI, 2004)
Where “and” joins values, the source holds several entries; their conditions need not be identical. Equal values may be shown once. Toxic doses and inconclusive results are not listed.

System: CD2F1 mice, L1210 leukemia ip, survival T/C
Experiment: NCI In Vivo Anticancer Drug Screen. Data for tumor model L1210 Leukemia (intraperitoneal) in CD2F1 (CDF1) mice
Conditions: higher = longer survival
Method in brief: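 Each value reflects a quotient of treated over vehicle control outcomes in mice with a transplanted tumor.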

[1] = endpoint: mean survival time, dose: 100.0 mg/kg/injection, schedule: Q01DX001 (ip), vehicle: saline
[2] = endpoint: mean survival time, dose: 200.0 mg/kg/injection, schedule: Q01DX001 (ip), vehicle: saline

Question: With `CCNC(=O)[B-][N+](C)(C)C` as the compound, how does the T/C (endpoint: median survival time, dose: 12.5 mg/kg/injection, schedule: Q01DX009 (ip), vehicle: Klucel (hydroxypropylcellulose) (HPC)) read?
Answer: Its T/C is 108 % of control.

Question: What about the T/C (endpoint: median survival time, dose: 25.0 mg/kg/injection, schedule: Q01DX009 (ip), vehicle: Klucel (hydroxypropylcellulose) (HPC)) of the same compound?
Answer: Its T/C is 106 % of control.

Question: What about the T/C (endpoint: median survival time, dose: 50.0 mg/kg/injection, schedule: Q01DX009 (ip), vehicle: Klucel (hydroxypropylcellulose) (HPC)) of the same compound?
Answer: The T/C was 106 % of control.

Question: And the T/C (endpoint: median survival time, dose: 100.0 mg/kg/injection, schedule: Q01DX009 (ip), vehicle: Klucel (hydroxypropylcellulose) (HPC))?
Answer: Its T/C is 107 % of control.

Question: What about the T/C (endpoint: median survival time, dose: 200.0 mg/kg/injection, schedule: Q01DX009 (ip), vehicle: Klucel (hydroxypropylcellulose) (HPC)) of the same compound?
Answer: Its T/C is 106 % of control.

Question: Which results are given for `COc1cc2c(c(OC)c1OC)-c1ccc(OC)c(=O)cc1[C@@H](N(C)C(C)=O)CC2`?
Answer: T/C (endpoint: mean survival time, dose: 0.06 mg/kg/injection, schedule: Q01DX005 (ip), vehicle: Klucel (hydroxypropylcellulose) (HPC)): 103 % of control; T/C (endpoint: mean survival time, dose: 0.13 mg/kg/injection, schedule: Q01DX005 (ip), vehicle: Klucel (hydroxypropylcellulose) (HPC)): 104 % of control; T/C (endpoint: mean survival time, dose: 0.25 mg/kg/injection, schedule: Q01DX005 (ip), vehicle: Klucel (hydroxypropylcellulose) (HPC)): 110 % of control; T/C (endpoint: mean survival time, dose: 1.0 mg/kg/injection, schedule: Q01DX005 (ip), vehicle: Klucel (hydroxypropylcellulose) (HPC)): 150 % of control

Question: For `Nc1ncnc2c1[nH]c(=O)n2C1OC(CO)C2OC21` (configuration not stated), which T/C (endpoint: mean survival time, dose: 12.5 mg/kg/injection, schedule: Q01DX005 (ip), vehicle: distilled water + Tween-80) is on record?
Answer: Its T/C is 102 % of control.

Question: What about the T/C (endpoint: mean survival time, dose: 25.0 mg/kg/injection, schedule: Q01DX005 (ip), vehicle: distilled water + Tween-80) of the same compound?
Answer: The T/C was 95 % of control.

Question: What about the T/C (endpoint: mean survival time, dose: 50.0 mg/kg/injection, schedule: Q01DX005 (ip), vehicle: distilled water + Tween-80) of the same compound?
Answer: Its T/C is 101 % of control.

Question: What about the T/C (endpoint: mean survival time, dose: 100.0 mg/kg/injection, schedule: Q01DX005 (ip), vehicle: distilled water + Tween-80) of the same compound?
Answer: The T/C was 92 % of control.

Question: What about the T/C (endpoint: mean survival time, dose: 200.0 mg/kg/injection, schedule: Q01DX005 (ip), vehicle: distilled water + Tween-80) of the same compound?
Answer: Its T/C is 95 % of control.

Question: What does the source list for `BrC/C(=N\N1CCCCC1)c1ccc(Br)cc1`?
Answer: T/C (endpoint: mean survival time, dose: 25.0 mg/kg/injection, schedule: Q01DX009 (ip), vehicle: saline sonified): 100 % of control; T/C (endpoint: mean survival time, dose: 50.0 mg/kg/injection, schedule: Q01DX009 (ip), vehicle: saline sonified): 96 % of control; T/C [1]: 94 % of control; T/C (endpoint: mean survival time, dose: 100.0 mg/kg/injection, schedule: Q01DX009 (ip), vehicle: saline sonified): 96 % of control; T/C [2]: 102 % of control; T/C (endpoint: mean survival time, dose: 400.0 mg/kg/injection, schedule: Q01DX001 (ip), vehicle: saline): 95 % of control

Question: Which results are given for `O=C(C(c1ccccc1)C(F)(F)F)N1CCCC1` (configuration not stated)?
Answer: T/C (endpoint: mean survival time, dose: 100.0 mg/kg/injection, schedule: Q04DX003 (ip), vehicle: saline with Tween-80): 97 % of control; T/C (endpoint: mean survival time, dose: 200.0 mg/kg/injection, schedule: Q04DX003 (ip), vehicle: saline with Tween-80): 100 % of control; T/C (endpoint: mean survival time, dose: 400.0 mg/kg/injection, schedule: Q04DX003 (ip), vehicle: saline with Tween-80): 97 % of control

Question: Which T/C (endpoint: mean survival time, dose: 25.0 mg/kg/injection, schedule: Q04DX003 (ip), vehicle: Klucel (hydroxypropylcellulose) (HPC)) does the source give for `Cc1ccc(C(=O)CCl)c(C)c1` here?
Answer: The T/C was 102 % of control.

Question: And the T/C (endpoint: mean survival time, dose: 50.0 mg/kg/injection, schedule: Q04DX003 (ip), vehicle: Klucel (hydroxypropylcellulose) (HPC))?
Answer: The T/C was 103 % of control.

Question: Which results are given for `Nc1nc(CCCCc2ccccc2)c(N=Nc2ccc(Cl)cc2)c(=O)[nH]1`?
Answer: T/C (endpoint: mean survival time, dose: 100.0 mg/kg/injection, schedule: Q01DX009 (ip), vehicle: saline with Tween-80): 90 % of control; T/C (endpoint: mean survival time, dose: 200.0 mg/kg/injection, schedule: Q01DX009 (ip), vehicle: saline with Tween-80): 90 % of control; T/C (endpoint: mean survival time, dose: 400.0 mg/kg/injection, schedule: Q01DX009 (ip), vehicle: saline with Tween-80): 87 % of control

Question: What does the source list for `Cn1c(=O)c2c(ncn2CN2CCN(Cn3cnc4c3c(=O)n(C)c(=O)n4C)CC2)n(C)c1=O`?
Answer: T/C [1]: 94 % of control; T/C [2]: 97 % of control

Question: For `[Co].c1ccc2c3[n-]c(c2c1)/N=c1\[n-]/c(c2ccccc12)=N\c1[n-]c(c2ccccc12)/N=c1\[n-]/c(c2ccccc12)=N\3`, which T/C (endpoint: mean survival time, dose: 25.0 mg/kg/injection, schedule: Q04DX002 (ip), vehicle: saline with Tween-80) is on record?
Answer: The T/C was 90 % of control.

Question: What about the T/C (endpoint: mean survival time, dose: 50.0 mg/kg/injection, schedule: Q04DX002 (ip), vehicle: saline with Tween-80) of the same compound?
Answer: The T/C was 93 % of control.

Question: And the T/C (endpoint: mean survival time, dose: 100.0 mg/kg/injection, schedule: Q04DX002 (ip), vehicle: saline with Tween-80)?
Answer: Its T/C is 90 % of control.

Question: `O=[N+]([O-])c1cc(C(F)(F)F)cc([N+](=O)[O-])c1Cl` was tested. Which T/C (endpoint: mean survival time, dose: 1.56 mg/kg/injection, schedule: Q04DX003 (ip), vehicle: Klucel (hydroxypropylcellulose) (HPC)) did it give?
Answer: Its T/C is 98 % of control and 101 % of control.

Question: What about the T/C (endpoint: mean survival time, dose: 3.12 mg/kg/injection, schedule: Q04DX003 (ip), vehicle: Klucel (hydroxypropylcellulose) (HPC)) of the same compound?
Answer: The T/C was 98 % of control and 102 % of control.

Question: What about the T/C (endpoint: mean survival time, dose: 6.25 mg/kg/injection, schedule: Q04DX003 (ip), vehicle: Klucel (hydroxypropylcellulose) (HPC)) of the same compound?
Answer: The T/C was 95 % of control and 98 % of control.

Question: What about the T/C (endpoint: mean survival time, dose: 12.5 mg/kg/injection, schedule: Q04DX003 (ip), vehicle: Klucel (hydroxypropylcellulose) (HPC)) of the same compound?
Answer: Its T/C is 90 % of control and 98 % of control.

Question: With `C=COCCN1CCN(CCCN2c3ccccc3Sc3ccc(C(F)(F)F)cc32)CC1` as the compound, how does the T/C (endpoint: mean survival time, dose: 12.5 mg/kg/injection, schedule: Q04DX003 (ip), vehicle: saline with Tween-80) read?
Answer: The T/C was 113 % of control.

Question: What about the T/C (endpoint: mean survival time, dose: 25.0 mg/kg/injection, schedule: Q04DX003 (ip), vehicle: saline with Tween-80) of the same compound?
Answer: The T/C was 113 % of control.

Question: `c1ccc(-c2nnc(-c3ccccn3)nn2)nc1` was tested. Which T/C (endpoint: mean survival time, dose: 12.5 mg/kg/injection, schedule: Q01DX009 (ip), vehicle: Klucel (hydroxypropylcellulose) (HPC)) did it give?
Answer: Its T/C is 103 % of control.

Question: And the T/C (endpoint: mean survival time, dose: 25.0 mg/kg/injection, schedule: Q01DX009 (ip), vehicle: Klucel (hydroxypropylcellulose) (HPC))?
Answer: Its T/C is 101 % of control.

Question: And the T/C (endpoint: mean survival time, dose: 50.0 mg/kg/injection, schedule: Q01DX009 (ip), vehicle: Klucel (hydroxypropylcellulose) (HPC))?
Answer: The T/C was 106 % of control.

Question: And the T/C (endpoint: mean survival time, dose: 100.0 mg/kg/injection, schedule: Q01DX009 (ip), vehicle: Klucel (hydroxypropylcellulose) (HPC))?
Answer: Its T/C is 101 % of control.

Question: And the T/C (endpoint: mean survival time, dose: 200.0 mg/kg/injection, schedule: Q01DX009 (ip), vehicle: Klucel (hydroxypropylcellulose) (HPC))?
Answer: Its T/C is 95 % of control.

Question: And the T/C (endpoint: mean survival time, dose: 400.0 mg/kg/injection, schedule: Q01DX009 (ip), vehicle: Klucel (hydroxypropylcellulose) (HPC))?
Answer: The T/C was 101 % of control.

Question: What does the source list for `C1CCC2[N-]CCCC2C1.C1CCC2[N-]CCCC2C1.[Cl][Pt+2][Cl]` (configuration not stated)?
Answer: T/C (endpoint: median survival time, dose: 3.12 mg/kg/injection, schedule: Q04DX003 (ip), vehicle: saline): 102 % of control; T/C (endpoint: median survival time, dose: 6.25 mg/kg/injection, schedule: Q04DX003 (ip), vehicle: saline): 98 % of control; T/C (endpoint: median survival time, dose: 12.5 mg/kg/injection, schedule: Q04DX003 (ip), vehicle: saline): 101 % of control; T/C (endpoint: median survival time, dose: 25.0 mg/kg/injection, schedule: Q04DX003 (ip), vehicle: saline): 105 % of control; T/C (endpoint: median survival time, dose: 50.0 mg/kg/injection, schedule: Q04DX003 (ip), vehicle: saline): 103 % of control; T/C (endpoint: median survival time, dose: 100.0 mg/kg/injection, schedule: Q04DX003 (ip), vehicle: saline): 94 % of control; T/C (endpoint: median survival time, dose: 200.0 mg/kg/injection, schedule: Q04DX003 (ip), vehicle: saline): 100 % of control
